Measurements reported in patent US20070293446A1, “Compositions comprising C-13 alkoxyether macrolide compounds and phenylpyrazole compounds” (priority 1996, published 2007).

Type: physicochemical
Source text: The solvent will be used in proportion with the concentration of the compound I and its solubility in this solvent. […] It will be sought to have the lowest possible volume. The vehicle makes up the difference to 100%.

N#Cc1nn(-c2c(Cl)cc(C(F)(F)F)cc2Cl)c(N)c1[S+]([O-])C(F)(F)F (stereo not shown) [fipronil, 1-[2,6—Cl2-4—CF3 phenyl]-3—CN-4-[SO-CF3]-5—NH2 pyrazole]
Solubility: 4.3 % m/V
